In ChEMBL document CHEMBL1155829, “Synthesis and cytotoxic, anti-inflammatory, and anti-oxidant activities of 2',5'-dialkoxylchalcones as cancer chemopreventive agents” (Bioorg Med Chem, 2008):
Active and inactive are the calls of the source. The calls are words filed in the database; no cut-off is given here.

Legend:
[1] = Cytotoxicity against human Hep3B cells by MTT assay; format: functional, cell-based, Hep 3B2
HT-29 = assay: Cytotoxicity against human HT29 cells by MTT assay; format: functional, cell-based
MCF7 = assay: Cytotoxicity against human MCF7 cells by MTT assay; format: functional, cell-based
[2] = Inhibition of tubulin polymerization
A549 [3] = assay: Cell cycle arrest in human A549 cells assessed as accumulation at G1 phase at 0.1 uM after 24 hrs by flow cytometry; format: functional
[4] = Antioxidant activity assessed as inhibition of superoxide radical-induced DNA damage of pBR322 at 300 uM after 20 mins by gel electrophoresis; format: functional
A549 [5] = assay: Cell cycle arrest in human A549 cells assessed as accumulation at S phase at 0.03 uM after 24 hrs by flow cytometry; format: functional
A549 [6] = assay: Cytotoxicity against human A549 cells by MTT assay; format: functional, cell-based
[7] = target: Xanthine dehydrogenase/oxidase (Homo sapiens, UniProt P47989); assay: Inhibition of xanthine oxidase
Sequence of Xanthine dehydrogenase/oxidase (P47989 whole entry): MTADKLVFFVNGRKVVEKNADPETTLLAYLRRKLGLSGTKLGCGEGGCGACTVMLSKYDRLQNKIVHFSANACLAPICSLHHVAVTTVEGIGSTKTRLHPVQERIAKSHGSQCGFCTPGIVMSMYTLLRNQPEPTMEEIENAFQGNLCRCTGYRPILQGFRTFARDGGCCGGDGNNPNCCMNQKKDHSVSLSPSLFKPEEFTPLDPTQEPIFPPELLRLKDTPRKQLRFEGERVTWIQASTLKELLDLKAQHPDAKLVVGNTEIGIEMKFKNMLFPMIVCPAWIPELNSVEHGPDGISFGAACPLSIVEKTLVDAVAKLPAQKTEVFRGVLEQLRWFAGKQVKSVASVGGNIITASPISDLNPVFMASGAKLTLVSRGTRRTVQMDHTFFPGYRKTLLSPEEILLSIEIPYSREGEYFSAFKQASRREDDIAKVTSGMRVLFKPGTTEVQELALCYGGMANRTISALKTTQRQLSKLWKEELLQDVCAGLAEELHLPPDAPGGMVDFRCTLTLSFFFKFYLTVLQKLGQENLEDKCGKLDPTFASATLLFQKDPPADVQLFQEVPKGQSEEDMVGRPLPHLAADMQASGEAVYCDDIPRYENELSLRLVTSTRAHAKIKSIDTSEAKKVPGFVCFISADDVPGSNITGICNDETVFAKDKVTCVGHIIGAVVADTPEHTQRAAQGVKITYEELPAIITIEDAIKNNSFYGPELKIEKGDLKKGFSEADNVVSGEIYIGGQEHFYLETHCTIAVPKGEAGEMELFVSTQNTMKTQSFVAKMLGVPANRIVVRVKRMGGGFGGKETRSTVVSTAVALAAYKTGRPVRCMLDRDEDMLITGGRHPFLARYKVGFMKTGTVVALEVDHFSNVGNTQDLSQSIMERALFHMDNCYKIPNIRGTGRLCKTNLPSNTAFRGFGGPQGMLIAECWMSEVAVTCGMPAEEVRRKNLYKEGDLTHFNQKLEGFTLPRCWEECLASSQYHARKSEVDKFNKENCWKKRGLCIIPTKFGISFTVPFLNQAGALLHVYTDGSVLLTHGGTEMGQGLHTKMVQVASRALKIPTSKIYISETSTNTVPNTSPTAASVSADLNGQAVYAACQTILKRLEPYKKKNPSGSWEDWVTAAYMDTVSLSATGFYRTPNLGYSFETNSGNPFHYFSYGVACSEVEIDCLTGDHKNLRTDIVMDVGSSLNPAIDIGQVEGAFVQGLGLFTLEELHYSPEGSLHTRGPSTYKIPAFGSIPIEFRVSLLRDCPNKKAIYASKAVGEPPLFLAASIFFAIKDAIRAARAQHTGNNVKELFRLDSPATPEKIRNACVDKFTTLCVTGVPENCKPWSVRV

A549 [8] = assay: Cell cycle arrest in human A549 cells assessed as accumulation at G1 phase at 10 uM after 24 hrs by flow cytometry; format: functional
A549 [9] = assay: Cell cycle arrest in human A549 cells assessed as accumulation at S phase at 10 uM after 24 hrs by flow cytometry; format: functional
A549 [10] = assay: Cell cycle arrest in human A549 cells assessed as accumulation at G2/M phase at 0.03 uM after 24 hrs by flow cytometry; format: functional
RAW264.7 [11] = assay: Antiinflammatory activity against mouse RAW264.7 cells assessed as inhibition of LPS-induced TNFalpha formation; format: functional, cell-based
[12] = test system: Radical scavenging activity; assay: Antioxidant activity assessed as DPPH radical scavenging activity; format: functional
A549 [13] = assay: Cell cycle arrest in human A549 cells assessed as accumulation at S phase at 0.1 uM after 24 hrs by flow cytometry; format: functional
A549 [14] = assay: Cell cycle arrest in human A549 cells assessed as accumulation at G1 phase at 0.03 uM after 24 hrs by flow cytometry; format: functional
A549 [15] = assay: Cell cycle arrest in human A549 cells assessed as accumulation at G2/M phase at 10 uM after 24 hrs by flow cytometry; format: functional
A549 [16] = assay: Cell cycle arrest in human A549 cells assessed as accumulation at G2/M phase at 0.1 uM after 24 hrs by flow cytometry; format: functional
RAW264.7 [17] = assay: Antiinflammatory activity against mouse RAW264.7 cells assessed as inhibition of LPS-induced nitric oxide production; format: functional, cell-based

Structure (SMILES) | IC50 [1] [µM] | IC50 (HT-29) [µM] | IC50 (MCF7) [µM] | further results
CCCOc1ccc(O)c(C(=O)/C=C/c2ccc(C)s2)c1 | 23.2 | 126 | 21.5 | 
COc1ccc(C(=O)/C=C/c2ccc(C)s2)c(O)c1O | 10.7 | 53.4 | 20.7 | 
CCOc1ccc(OC)cc1C(=O)/C=C/c1ccc(C)s1 | 0.2 | 0.1 | 2.3 | Activity [2]: Active; Activity (A549 [3]): 65.919%; Activity [4]: Active; Activity (A549 [5]): 27.69%; IC50 (A549 [6]): 6.3 µM; IC50 [7]: 131 µM; Activity (A549 [8]): 64.102%; Activity (A549 [9]): 24.271%; Activity (A549 [10]): 2.104%; IC50 (RAW264.7 [11]): 0.4 µM; Activity [12]: inactive; Activity (A549 [13]): 28.384%; Activity (A549 [14]): 70.207%; Activity (A549 [15]): 11.627%; Activity (A549 [16]): 5.698%
CCCCOc1ccc(O)c(C(=O)/C=C/c2ccc(C)s2)c1 | 91.7 | 71.4 | 38.9 | 
COc1ccc(O)c(C(=O)/C=C/c2ccc(C)s2)c1 | 87.5 | 71.5 | 34.6 | 
Cc1ccc(/C=C/C(=O)c2cc(OC(C)C)ccc2O)s1 | 81.7 | 30.2 | 15.5 | 
Cc1ccc(/C=C/C(=O)c2cc(OCC(C)C)ccc2O)s1 | 54.4 | 30.7 | 13 | 
CCCCOc1ccc(OC)cc1C(=O)/C=C/c1ccc(C)s1 | 10.7 | 61.1 | 13.9 | IC50 (RAW264.7 [17]): 28 µM
CCOc1ccc(O)c(C(=O)/C=C/c2ccc(C)s2)c1 | 90.2 | 43.4 | 23.2 | 
Cc1ccc(/C=C/C(=O)c2ccc(O)c(O)c2O)s1 |  | 35.9 |  | 
O=c1[nH]cc(F)c(=O)[nH]1 [FLUOROURACIL] | 0.6 |  |  | 
CCCCCOc1ccc(O)c(C(=O)/C=C/c2ccc(C)s2)c1 | 112 | 86.9 | 48.4 | 
CCCOc1ccc(OC)cc1C(=O)/C=C/c1ccc(C)s1 | 7 | 86.6 | 0.8 | 
CCOc1ccc(OCC)c(C(=O)/C=C/c2ccc(C)s2)c1 | 31.6 | 3.2 | 1.4 | Activity [4]: Active; IC50 (A549 [6]): 4.4 µM; IC50 [7]: 21.3 µM; Activity [12]: inactive; IC50 (RAW264.7 [17]): 16.5 µM
